Consider one compound from US11111232B2, “Substituted cyclobutylpyridine and cyclobutylpyrimidine compounds as indoleamine 2,3-dioxygenase (IDO) inhibitors” (MERCK SHARP & DOHME CORP., priority 2017, dated 2021).

The target in experiment [1] is T1, IDO1 (Homo sapiens, UniProt P14902). Kind of experiment: IDO1 HEK293 cellular assay. It is filed as cell-based. The following applies: HEK293 cells transfected with Flag-IDO1 vector, 20-24 hours, fluorescence readout. How it is done: IDO1 HEK293 Cellular Assay
T1 sequence (P14902 whole entry): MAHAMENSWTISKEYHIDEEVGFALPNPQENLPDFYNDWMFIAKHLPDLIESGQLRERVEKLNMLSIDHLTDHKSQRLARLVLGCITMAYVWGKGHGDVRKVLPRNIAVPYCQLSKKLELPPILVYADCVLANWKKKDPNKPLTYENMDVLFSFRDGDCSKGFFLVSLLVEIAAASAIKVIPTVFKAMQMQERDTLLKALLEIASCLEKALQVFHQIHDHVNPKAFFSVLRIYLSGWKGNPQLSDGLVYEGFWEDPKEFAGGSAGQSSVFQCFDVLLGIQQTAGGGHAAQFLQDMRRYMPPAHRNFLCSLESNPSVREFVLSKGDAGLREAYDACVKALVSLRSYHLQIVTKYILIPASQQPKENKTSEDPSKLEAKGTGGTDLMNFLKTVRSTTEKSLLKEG
Compounds to be tested were serially diluted in ten 3-fold steps in DMSO starting from 10 mM DMSO stocks. Compound dilutions or DMSO alone were then dispensed from the dilution plate into a Greiner black 384-well assay plate (catalog #781086) using an Echo 550 acoustic liquid handler (Labcyte).
HEK293 cell pellets were resuspended to 5×10^5 cells/mL in complete HEK293 culture media (89% DMEM, 10% FBS, 1% penicillin/streptomycin). Suspended cells (2 mL) were dispensed into each well of a 6-well Corning plate (Catalog # 3516). Cells were allowed to attach and were incubated for 20 hours at 37° C. in a 5% CO2 incubator. Flag-IDO1 vector (Genscript True ORF Gold, 2 ug) in 150 uL of Opti-MEM medium was added to each well of a Corning 24 well plate (Cat # 3527) and incubated for 5 minutes at room temperature. To each well of the 24-well plate was added […] Lipofectamine 2000 (Gibco) and the plate incubated at room temperature for 20-30 minutes. To each well of attached cells in the 6-well plate, […] of the transfection mix from the 24-well plate was gently added to each well and IDO1 protein was allowed to express for 24-30 hours at 37 degrees Celsius in a 5% CO2 incubator.
Media was removed from the cells which were then washed with 2 mL Dulbecco's phosphate-buffered saline (DPBS). After removal of DPBS, 0.5 mL of TrypLE (Gibco) was added and incubated at 5 minutes until cells lift from the surface of the wells. Complete HEK293 culture media (4 mL) was added to each well and cells were collected and pooled into a conical tube. Cells were pelleted at 200×g for 5 minutes and resuspended in an equal volume of complete DMEM medium. Cells were diluted to 4×10^5 cells per mL in complete HEK293 media. L-Tryptophan was added to added to give a final concentration of […]. The diluted transfected cells […] or nontransfected cells […] were dispensed into wells of Greiner black 384-well assay plates (catalog #781086) containing previously diluted compounds. The plate is briefly mixed and centrifuged at 200×g for 10 seconds to collect cells at the bottom of the plate. Plates were covered and incubated for 20-24 hours at 37 degrees C. in a 5% CO2 incubator. Afterwards […] of 0.5 M methyl isonipecotate in dimethyl sulfoxide was added to each well, mixed, sealed, and centrifuged at 500 rpm for 10 seconds. Plates were incubated at 37 degrees in a 5% CO2 incubator overnight to develop fluoresence. The plates are allowed to cool and then centrifuged for 1 minute at 1000×g. The resulting fluoresence was measured in an Envision plate reader (Perkin Elmer) with a 400/25 nm excitation filter and an 510/20 nm emission filter.
The fluoresence intensity of each well was corrected for the background observed in wells with untransfected cells and was expressed as a fraction of the intensity observed in wells of IDO1 transfected cells and DMSO only. Potencies were calculated by linear least squares fit to the four parameter logistic IC50 equation.

The target in experiment [2] is T1, IDO1. Description: IDO1 cellular assay in Hela cells stimulated with IFNγ. To be noted: IFNγ 100 ng/mL, 300 uM L-tryptophan, about 48 hours, fluorescence readout. It is filed as cell-based.

As to `O=C(Nc1ccc(C2(C(=O)Nc3ccc(F)cc3)CCC2)cn1)C1CCCCC1` [Example 15, N-(5-{1-[(4-fluorophenyl)carbamoyl]cyclobutyl}pyridin-2-yl) cyclohexanecarboxamide], the results for the IC50 in experiment [1] and in experiment [2] were 7 nM and 10 nM, respectively.

Usually IC50 stands for the midpoint of a concentration-inhibition curve.
